In patent US20160022701A1, “NEUROACTIVE STEROIDS, COMPOSITIONS, AND USES THEREOF” (SAGE THERAPEUTICS, INC., priority 2013, published 2016) one finds activation data, which are given here for 29 molecules.

The target in this assay is T1, NMDA receptor (GRIN1/GRIN2A subunits) (Homo sapiens, UniProt Q05586+Q12879).
T1 construct: expressed in transfected cells; host or cells: HEK 293 cells, stably transfected with GRIN1 and transiently transfected with GRIN2A and CD8
Nature of the assay: NMDA potentiation, whole-cell patch-clamp in HEK cells. The format is cell-based. To be noted: currents evoked by 30 μM NMDA and 5.0 μM Glycine, holding potential −80 mV; for activation at 0.1 µM: HEK293, compound 0.1 uM, read-out: NMDA 1a2A (%) Potentiation 0.1 uM; for activation at 1 µM: HEK293, compound 1 uM, read-out: NMDA 1a2A (%) Potentiation 1 uM. In general terms: Patch clamp records ionic current or voltage across a cell membrane.

T1 sequence (Q12879 23-1464, other chains not shown): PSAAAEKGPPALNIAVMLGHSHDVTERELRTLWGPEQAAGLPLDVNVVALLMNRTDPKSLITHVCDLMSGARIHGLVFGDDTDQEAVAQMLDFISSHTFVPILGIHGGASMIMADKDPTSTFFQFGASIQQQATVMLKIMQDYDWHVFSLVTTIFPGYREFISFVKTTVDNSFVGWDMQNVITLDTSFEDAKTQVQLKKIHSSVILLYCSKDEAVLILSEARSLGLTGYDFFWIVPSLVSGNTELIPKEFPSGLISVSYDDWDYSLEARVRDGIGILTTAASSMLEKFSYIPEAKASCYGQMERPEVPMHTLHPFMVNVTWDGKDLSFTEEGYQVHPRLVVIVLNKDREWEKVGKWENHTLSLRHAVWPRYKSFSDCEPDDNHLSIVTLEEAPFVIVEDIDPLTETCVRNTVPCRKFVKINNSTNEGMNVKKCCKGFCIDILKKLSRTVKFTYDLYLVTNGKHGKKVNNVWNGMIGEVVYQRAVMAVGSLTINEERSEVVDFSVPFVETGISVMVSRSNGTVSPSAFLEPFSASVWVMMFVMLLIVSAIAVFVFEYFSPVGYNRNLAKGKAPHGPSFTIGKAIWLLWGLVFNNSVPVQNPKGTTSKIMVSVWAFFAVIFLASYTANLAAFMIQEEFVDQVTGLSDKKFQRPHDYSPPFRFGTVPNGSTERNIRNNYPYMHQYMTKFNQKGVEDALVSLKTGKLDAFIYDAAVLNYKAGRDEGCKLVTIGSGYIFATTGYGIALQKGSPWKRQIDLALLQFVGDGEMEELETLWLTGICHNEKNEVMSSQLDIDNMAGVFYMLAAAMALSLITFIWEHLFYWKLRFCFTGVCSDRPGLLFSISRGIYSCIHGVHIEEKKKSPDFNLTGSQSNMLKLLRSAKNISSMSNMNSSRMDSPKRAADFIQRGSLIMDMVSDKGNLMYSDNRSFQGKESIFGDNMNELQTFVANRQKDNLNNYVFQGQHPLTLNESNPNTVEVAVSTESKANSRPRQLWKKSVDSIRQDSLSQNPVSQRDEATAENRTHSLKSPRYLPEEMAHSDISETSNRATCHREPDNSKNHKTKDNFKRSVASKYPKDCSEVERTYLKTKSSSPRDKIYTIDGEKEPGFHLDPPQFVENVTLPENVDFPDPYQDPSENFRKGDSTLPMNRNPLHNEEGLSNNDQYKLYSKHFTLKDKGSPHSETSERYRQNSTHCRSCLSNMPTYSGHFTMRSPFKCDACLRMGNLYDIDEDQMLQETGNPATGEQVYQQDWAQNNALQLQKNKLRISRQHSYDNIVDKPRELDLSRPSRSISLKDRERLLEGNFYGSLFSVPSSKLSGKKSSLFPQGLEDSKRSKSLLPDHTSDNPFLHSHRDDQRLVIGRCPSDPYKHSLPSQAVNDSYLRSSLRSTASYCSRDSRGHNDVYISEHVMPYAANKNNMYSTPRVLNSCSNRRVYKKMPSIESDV

For the molecule `COC[C@@]1(O)CC[C@@]2(C)[C@@H](CC[C@@H]3[C@@H]2CC[C@]2(C)[C@@H]([C@H](C)CCC(C)(C)O)CC[C@@H]32)C1`, the activation at 0.1 µM was found to be 8% and the activation at 1 µM turned out to be 25%. Consider `C[C@H](CCC(C)(C)N)[C@H]1CC[C@H]2[C@@H]3CC=C4C[C@@H](O)CC[C@]4(C)[C@H]3CC[C@]12C`, for which the activation at 0.1 µM was -8% and the activation at 1 µM is -19%. For `C[C@H](CCC(C)(C)O)[C@H]1CC[C@H]2[C@@H]3CC[C@H]4C[C@@](C)(O)CC[C@]4(C)[C@H]3CC[C@]12C`, the activation at 0.1 µM is 87%. As to `C[C@H](CC(C)(C)O)[C@H]1CC[C@H]2[C@@H]3CC=C4C[C@@H](O)CC[C@]4(C)[C@H]3CC[C@]12C`, the activation at 0.1 µM is -5% and the activation at 1 µM worked out at 27%.

`C[C@H](CCC(C)(C)O)[C@H]1CC[C@H]2[C@@H]3CC[C@H]4C[C@](C)(O)CC[C@@H]4[C@H]3CC[C@]12C`: the activation at 0.1 µM stood at 21% and the activation at 1 µM stood at 52%. Consider `C[C@H](CCCO)[C@H]1CC[C@H]2[C@@H]3CC=C4C[C@@H](O)CC[C@]4(C)[C@H]3CC[C@]12C`, for which the activation at 0.1 µM was 39% and the activation at 1 µM amounted to 127%.

In the case of `C[C@H](CC(F)(F)CO)[C@H]1CC[C@H]2[C@@H]3CC=C4C[C@@H](O)CC[C@]4(C)[C@H]3CC[C@]12C`, the activation at 0.1 µM was 31% and the activation at 1 µM turned out to be 95%. The matching figures for `CC[C@]1(O)CC[C@@]2(C)C(=CC[C@H]3[C@@H]4CC[C@H]([C@H](C)CCC(C)(C)O)[C@@]4(C)CC[C@@H]32)C1`: 181% and 286%.

On to `C[C@H](CCC(C)(C)O)[C@H]1CC[C@H]2[C@@H]3CC=C4C[C@@](C)(O)CC[C@]4(C)[C@H]3CC[C@]12C`, for which the activation at 0.1 µM is 128% and the activation at 1 µM came to 348%. As to `COC[C@]1(O)CC[C@@]2(C)[C@@H](CC[C@@H]3[C@@H]2CC[C@]2(C)[C@@H]([C@H](C)CCC(C)(C)O)CC[C@@H]32)C1`, the activation at 0.1 µM was determined as 14% and the activation at 1 µM was 110%. With `C[C@@H]([C@H]1CC[C@H]2[C@@H]3CC=C4C[C@@H](O)CC[C@]4(C)[C@H]3CC[C@]12C)C(C)(C)O`, the activation at 0.1 µM amounted to 4% and the activation at 1 µM stood at 24%.

As for `C[C@H](CCC(C)(C)O)[C@H]1CC[C@H]2[C@@H]3CC[C@H]4C[C@@](C)(O)CC[C@@H]4[C@H]3CC[C@]12C`, the activation at 0.1 µM stood at 25% and the activation at 1 µM came to 114%. As for `C[C@H](CCC(C)(C)O)[C@H]1CC[C@H]2[C@@H]3CC=C4C[C@](C)(O)CC[C@]4(C)[C@H]3CC[C@]12C`, the activation at 0.1 µM was 13% and the activation at 1 µM amounted to 60%. The matching figures for `CC(C)(O)CCC[C@H]1CCC2C3CC[C@H]4C[C@@](C)(O)CC[C@]4(C)C3CC[C@@]21C` (stereo partly drawn): 17% and 105%. On to `CC(C)(O)COC[C@H]1CCC2C3CC=C4C[C@@](C)(O)CC[C@]4(C)C3CC[C@@]21C` (stereo partly drawn), for which the activation at 0.1 µM was -5% and the activation at 1 µM was -14%.

On to `CC(CCC(C)(C)O)[C@H]1CC[C@H]2[C@@H]3CC=C4C[C@@H](O)CC[C@]4(C)[C@H]3CC[C@]12C` (stereo partly drawn) [Compound 1], for which the activation at 0.1 µM turned out to be 55% and the activation at 1 µM came to 197%. On to `CC[C@@]1(O)CC[C@@]2(C)C(=CC[C@H]3[C@@H]4CC[C@H]([C@H](C)CCC(C)(C)O)[C@@]4(C)CC[C@@H]32)C1`, for which the activation at 0.1 µM is 23% and the activation at 1 µM was found to be 139%.

On to `CNC(C)(C)CC[C@@H](C)[C@H]1CC[C@H]2[C@@H]3CC=C4C[C@@H](O)CC[C@]4(C)[C@H]3CC[C@]12C`, for which the activation at 0.1 µM was 25% and the activation at 1 µM was found to be 19%. Regarding `C[C@H](CCC(C)(C)O)[C@H]1CC[C@H]2[C@@H]3CC[C@@H]4C[C@@](O)(C(F)(F)F)CC[C@]4(C)[C@H]3CC[C@]12C`, the activation at 0.1 µM was determined as 9% and the activation at 1 µM was found to be 18%. `C[C@H](CCC(C)(C)O)[C@H]1CC[C@H]2[C@@H]3CC[C@H]4C[C@](O)(C(F)(F)F)CC[C@]4(C)[C@H]3CC[C@]12C`: the activation at 0.1 µM amounted to 59% and the activation at 1 µM came out at 172%.

Regarding `CC(C)(O)CCO[C@H]1CCC2C3CC[C@H]4C[C@@](C)(O)CC[C@]4(C)C3CC[C@@]21C` (stereo partly drawn), the activation at 0.1 µM was found to be 6% and the activation at 1 µM came to 27%. Regarding `C[C@H](CCC(C)(C)O)[C@H]1CC[C@H]2[C@@H]3CC[C@H]4C[C@](O)(C(F)(F)F)CC[C@@H]4[C@H]3CC[C@]12C`, the activation at 0.1 µM came to 14% and the activation at 1 µM stood at 85%. Turning to `CC(O)CC[C@@H](C)[C@H]1CC[C@H]2[C@@H]3CC=C4C[C@@H](O)CC[C@]4(C)[C@H]3CC[C@]12C` (stereo partly drawn), the activation at 0.1 µM amounted to 42% and the activation at 1 µM was determined as 98%. Take `C[C@H](CCC(C)(C)O)[C@H]1CC[C@H]2[C@@H]3CC[C@H]4C[C@@H](O)CC[C@]4(C)[C@H]3CC[C@]12C`: the activation at 0.1 µM came to 18% and the activation at 1 µM worked out at 85%. For `CC(C)[C@H](O)CC[C@@H](C)[C@H]1CC[C@H]2[C@@H]3CC=C4C[C@@H](O)CC[C@]4(C)[C@H]3CC[C@]12C`, the activation at 0.1 µM is 82% and the activation at 1 µM was found to be 137%. The matching figures for `C[C@H](CCC(C)(C)O)[C@H]1CC[C@H]2[C@@H]3CC[C@H]4C[C@](C)(O)CC[C@]4(C)[C@H]3CC[C@]12C`: 19% and 30%. The matching figures for `C[C@H](CCC(C)(C)O)[C@H]1CC[C@H]2[C@@H]3CC=C4C[C@@H](O)CC[C@@H]4[C@H]3CC[C@]12C`: 28% and 66%. For the molecule `C[C@H](CCC1(O)CC1)[C@H]1CC[C@H]2[C@@H]3CC=C4C[C@@H](O)CC[C@]4(C)[C@H]3CC[C@]12C`, the activation at 0.1 µM is 74% and the activation at 1 µM came out at 171%. As to `C[C@H](CCC(C)(C)O)[C@H]1CC[C@H]2[C@@H]3CC[C@H]4C[C@@H](O)CC[C@@H]4[C@H]3CC[C@]12C`, the activation at 0.1 µM came out at 19% and the activation at 1 µM is 44%.
